Key:
CDK4/cyclin D3 = target: T1, CDK4/cyclin D3 (Homo sapiens, UniProt P11802); assay: Human CDK4/cyclin D3 inhibitory activity (QS S Assist CDK4/Cyclin D3_FP Kit, IMAP fluorescent polarization); format: biochemical; conditions: read-out: CDK4 Activity symbol
T1 construct: purchased Carna Biosciences, Inc. QS S Assist CDK4/Cyclin D3_FP Kit
How it was run: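 Kinase reactions used kit CDK4/cyclin D3 at 12.5–25 ng/well with the kit ATP/substrate/metal mix in 20 mM HEPES (pH 7.4), 0.01% Tween20 and 2 mM DTT, run 45 min at room temperature. Phosphorylation was detected by IMAP fluorescence polarization (ex 485/em 535 nm) after 30 min binding in the dark. IC50 was fitted from percent inhibition against DMSO controls with and without enzyme.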

CDK2/cyclin A2 = target: T2, CDK2/cyclin A2 (Homo sapiens, UniProt P24941); assay: Human CDK2/cyclin A2 inhibitory activity (QS S Assist CDK2/Cyclin A2_FP Kit, IMAP fluorescent polarization); format: biochemical; conditions: read-out: CDK2 Activity symbol
T2 construct: purchased Carna Biosciences, Inc. QS S Assist CDK2/Cyclin A2_FP Kit
How it was run: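 Kit CDK2/cyclin A2 (2.5 ng/well) was reacted with kit ATP/substrate/metal in 20 mM HEPES pH 7.4, 0.01% Tween 20 and 2 mM DTT for 60 min at room temperature. IMAP binding reagent was added for 30 min, then fluorescence polarization was read at 485/535 nm. IC50 came from dose-response fitting of percent inhibition.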

T1 sequence (P11802 whole entry): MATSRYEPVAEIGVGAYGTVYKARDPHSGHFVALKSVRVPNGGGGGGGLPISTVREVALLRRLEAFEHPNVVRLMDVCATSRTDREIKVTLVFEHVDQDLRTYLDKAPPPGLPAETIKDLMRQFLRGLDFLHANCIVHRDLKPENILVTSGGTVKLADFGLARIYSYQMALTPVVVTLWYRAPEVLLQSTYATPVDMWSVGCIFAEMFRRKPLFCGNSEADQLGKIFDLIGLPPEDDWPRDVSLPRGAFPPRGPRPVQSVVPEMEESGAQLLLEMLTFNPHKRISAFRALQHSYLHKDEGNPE
T1 sequence (P30281 whole entry partner): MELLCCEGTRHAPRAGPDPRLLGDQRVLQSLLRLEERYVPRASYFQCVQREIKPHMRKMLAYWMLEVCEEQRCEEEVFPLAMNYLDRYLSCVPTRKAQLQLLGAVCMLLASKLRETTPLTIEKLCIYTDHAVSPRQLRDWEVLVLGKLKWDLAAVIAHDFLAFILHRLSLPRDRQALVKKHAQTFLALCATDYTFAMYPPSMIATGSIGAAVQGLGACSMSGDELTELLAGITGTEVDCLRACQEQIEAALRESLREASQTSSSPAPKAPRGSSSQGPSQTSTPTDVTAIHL

| IC50 (CDK4/cyclin D3) | IC50 (CDK2/cyclin A2) | SMILES |
| --- | --- | --- |
| < 0.01 µM | ≥ 0.1 µM | c1cc(Nc2ncc3cc(C4CCOC4)nc(N4CCCCC4)c3n2)ncc1CN1CCNCC1 (stereo not drawn) [Compound 206] |
| < 0.01 µM | ≥ 0.1 µM | c1cc(N2CCNCC2)nnc1Nc1ncc2cc(C3CCOC3)nc(N3CCCCC3)c2n1 (stereo not drawn) [Compound 208] |
| < 0.01 µM | ≥ 0.1 µM | C[C@@H](O)c1cc2cnc(Nc3ccc4c(n3)CCN(C(=O)[C@H]3CCCN3)C4)nc2c(N2CCCCC2)n1 [Compound 209] |
| < 0.01 µM | ≥ 0.1 µM | C[C@@H](O)c1cc2cnc(Nc3ccc4c(n3)CCN(C(=O)[C@H]3CCNC3)C4)nc2c(N2CCCCC2)n1 [Compound 210] |
| < 0.01 µM | ≥ 0.1 µM | C[C@@H](O)c1cc2cnc(Nc3ccc4c(n3)CCN(C(=O)[C@H]3CCCCN3)C4)nc2c(N2CCCCC2)n1 [Compound 211] |
| < 0.01 µM | ≥ 0.1 µM | C[C@@H](O)c1cc2cnc(Nc3ccc4c(n3)CCN(C(=O)[C@H]3C[C@H](O)CN3)C4)nc2c(N2CCCCC2)n1 [Compound 212] |
| < 0.01 µM | ≥ 0.1 µM | C[C@@H](O)c1cc2cnc(Nc3ccc4c(n3)CCN(C(=O)[C@H]3C[C@@H](O)CN3)C4)nc2c(N2CCCCC2)n1 [Compound 213] |
| < 0.01 µM | ≥ 0.1 µM | C[C@@H](O)c1cc2cnc(Nc3ccc4c(n3)CCN(C(=O)[C@@H]3CCCNC3)C4)nc2c(N2CCCCC2)n1 [Compound 214] |
| < 0.01 µM | ≥ 0.1 µM | C[C@@H](O)c1cc2cnc(Nc3ccc4c(n3)CCN(C(=O)[C@H]3CCN3)C4)nc2c(N2CCCCC2)n1 [Compound 215] |
| < 0.01 µM | ≥ 0.1 µM | C[C@@H](O)c1cc2cnc(Nc3ccc4c(n3)CCN(C(=O)C3CNCCO3)C4)nc2c(N2CCCCC2)n1 (stereo partly drawn) [Compound 216] |
| < 0.01 µM | ≥ 0.1 µM | CC(O)c1cc2cnc(Nc3ccc(OC4CCN(CCO)CC4)cn3)nc2c(N2C3CCC2CC3)n1 (stereo not drawn) [Compound 218] |
| < 0.01 µM | ≥ 0.1 µM | C[C@@H](O)c1cc2cnc(Nc3ccc(OC4CCN(CCO)CC4)cn3)nc2c(N2CC[C@@H](F)C2)n1 [Compound 219] |
| < 0.01 µM | ≥ 0.1 µM | C[C@@H](O)c1cc2cnc(Nc3ccc(OC4CCNCC4)cn3)nc2c(N2CC[C@@H](F)C2)n1 [Compound 221] |
| < 0.01 µM | ≥ 0.1 µM | C[C@@H](O)c1cc2cnc(Nc3ccc(OC4CCN(CCO)CC4)cn3)nc2c(N2CCC[C@H](F)C2)n1 [Compound 222] |
| < 0.01 µM | ≥ 0.1 µM | C[C@@H](O)c1cc2cnc(Nc3ccc(O[C@H]4CCCNC4)cn3)nc2c(N2CCCCC2)n1 [Compound 241] |
| < 0.01 µM | ≥ 0.1 µM | C[C@@H](O)c1cc2cnc(Nc3ccc(OC4CCNCC4)cn3)nc2c(N2CCC[C@H](F)C2)n1 [Compound 243] |

| IC50 (CDK4/cyclin D3) | IC50 (CDK2/cyclin A2) | SMILES |
| --- | --- | --- |
| < 0.01 µM | ≥ 0.1 µM | O=C1CCNCCN1c1ccc(Nc2ncc3cc(CO)nc(N4CCCCC4)c3n2)nc1 [Compound 244] |
| < 0.01 µM | ≥ 0.1 µM | CC[C@@H](O)c1cc2cnc(Nc3ccc(N4CCNCC4=O)cn3)nc2c(N2CCC[C@H]2C)n1 [Compound 245] |
| < 0.01 µM | ≥ 0.1 µM | CC[C@H](O)c1cc2cnc(Nc3ccc(N4CCNCC4=O)cn3)nc2c(N2CCC[C@H]2C)n1 [Compound 246] |
| < 0.01 µM | ≥ 0.1 µM | CC[C@@H](O)c1cc2cnc(Nc3ccc(CN4CCN(CCO)CC4)cn3)nc2c(N2CCC[C@H]2C)n1 [Compound 247] |
| < 0.01 µM | ≥ 0.1 µM | CC[C@H](O)c1cc2cnc(Nc3ccc(CN4CCN(CCO)CC4)cn3)nc2c(N2CCC[C@H]2C)n1 [Compound 248] |
| 0.01 to 0.1 µM | ≥ 0.1 µM | C[C@@H](O)c1cc2cnc(Nc3ccc(CN4CCN(CCO)C(=O)C4)cn3)nc2c(N2CCCCC2)n1 [Compound 249] |
| < 0.01 µM | ≥ 0.1 µM | C[C@@H](O)c1cc2cnc(Nc3ccc(O[C@H]4CCCNC4)cn3)nc2c(N2CC[C@@H](F)C2)n1 [Compound 250] |
| < 0.01 µM | ≥ 0.1 µM | C[C@@H](O)c1cc2cnc(Nc3ccc(O[C@H]4CCCNC4)cn3)nc2c(N2CCC[C@H](F)C2)n1 [Compound 251] |
| < 0.01 µM | ≥ 0.1 µM | C[C@@H](O)c1cc2cnc(Nc3ccc(O[C@H]4CCCN(CCO)C4)cn3)nc2c(N2CCCCC2)n1 [Compound 252] |
| < 0.01 µM | ≥ 0.1 µM | C[C@@H](O)c1cc2cnc(Nc3ccc(O[C@H]4CCCN(CCO)C4)cn3)nc2c(N2CC[C@@H](F)C2)n1 [Compound 254] |
| < 0.01 µM | ≥ 0.1 µM | C[C@@H](O)c1cc2cnc(Nc3ccc(O[C@H]4CCCN(CCO)C4)cn3)nc2c(N2CCC[C@H](F)C2)n1 [Compound 255] |
| < 0.01 µM | ≥ 0.1 µM | C[C@H]1CCN(c2nc([C@@H](C)O)cc3cnc(Nc4ccc(N5CCNCC5=O)cn4)nc23)C1 [Compound 257] |
| < 0.01 µM | ≥ 0.1 µM | C[C@H]1CCN(c2nc([C@@H](C)O)cc3cnc(Nc4ccc(N5CCCNCC5=O)cn4)nc23)C1 [Compound 258] |
| < 0.01 µM | ≥ 0.1 µM | C[C@@H](O)c1cc2cnc(Nc3ccc(N4CCN(CCS(C)(=O)=O)CCC4=O)cn3)nc2c(N2CCCCC2)n1 [Compound 259] |
| < 0.01 µM | ≥ 0.1 µM | Cc1nc(Nc2ncc3cc([C@@H](C)O)nc(N4CCCCC4)c3n2)ccc1N1CCNCC1=O [Compound 260] |

| SMILES | IC50 (CDK4/cyclin D3) | IC50 (CDK2/cyclin A2) |
| --- | --- | --- |
| c1cc(N2CCNCC2)nnc1Nc1ncc2cc(C3CCOC3)nc(N3C4CCC3CC4)c2n1 (stereo not drawn) [Compound 207] | < 0.01 µM | ≥ 0.1 µM |
| C[C@@H](O)c1cc2cnc(Nc3ccc(OC4CCNCC4)cn3)nc2c(N2C3CCC2CC3)n1 [Compound 220] | < 0.01 µM | ≥ 0.1 µM |
| C[C@@H](O)c1cc2cnc(Nc3ccc4c(n3)CCN(C(=O)[C@@H]3CCCN3C)C4)nc2c(N2C3CCC2CC3)n1 [Compound 223] | < 0.01 µM | ≥ 0.1 µM |
| C[C@@H](O)c1cc2cnc(Nc3ccc4c(n3)CCN(C(=O)[C@H]3CCCN3C)C4)nc2c(N2C3CCC2CC3)n1 [Compound 224] | < 0.01 µM | ≥ 0.1 µM |
| C[C@@H](O)c1cc2cnc(Nc3ccc4c(n3)CCN(C(=O)[C@H]3CCN(C)C3)C4)nc2c(N2C3CCC2CC3)n1 [Compound 225] | < 0.01 µM | ≥ 0.1 µM |
| C[C@@H](O)c1cc2cnc(Nc3ccc4c(n3)CCN(C(=O)[C@@H]3CCN(C)C3)C4)nc2c(N2C3CCC2CC3)n1 [Compound 226] | < 0.01 µM | ≥ 0.1 µM |
| C[C@@H](O)c1cc2cnc(Nc3ccc4c(n3)CCN(C(=O)[C@@H]3C[C@@H](O)CN3C)C4)nc2c(N2C3CCC2CC3)n1 [Compound 227] | < 0.01 µM | ≥ 0.1 µM |
| C[C@@H](O)c1cc2cnc(Nc3ccc4c(n3)CCN(C(=O)CN3CCCC3)C4)nc2c(N2C3CCC2CC3)n1 [Compound 228] | < 0.01 µM | ≥ 0.1 µM |
| C[C@@H](O)c1cc2cnc(Nc3ccc4c(n3)CCN(C(=O)CN3CC(O)C3)C4)nc2c(N2C3CCC2CC3)n1 [Compound 229] | < 0.01 µM | ≥ 0.1 µM |
| C[C@@H](O)c1cc2cnc(Nc3ccc4c(n3)CCN(C(=O)CN3CCC3)C4)nc2c(N2C3CCC2CC3)n1 [Compound 230] | < 0.01 µM | ≥ 0.1 µM |
| C[C@@H](O)c1cc2cnc(Nc3ccc4c(n3)CCN(C(=O)CN3CC[C@@H](F)C3)C4)nc2c(N2C3CCC2CC3)n1 [Compound 231] | < 0.01 µM | ≥ 0.1 µM |
| C[C@@H](O)c1cc2cnc(Nc3ccc4c(n3)CCN(C(=O)CN3CC[C@@H](O)C3)C4)nc2c(N2C3CCC2CC3)n1 [Compound 232] | < 0.01 µM | ≥ 0.1 µM |
| C[C@@H](O)c1cc2cnc(Nc3ccc4c(n3)CCN(C(=O)CN3CC[C@H](O)C3)C4)nc2c(N2C3CCC2CC3)n1 [Compound 233] | < 0.01 µM | ≥ 0.1 µM |
| C[C@@H](O)c1cc2cnc(Nc3ccc4c(n3)CCN(C(=O)CNC3COC3)C4)nc2c(N2C3CCC2CC3)n1 [Compound 234] | 0.01 to 0.1 µM | ≥ 0.1 µM |
| C[C@@H](O)c1cc2cnc(Nc3ccc4c(n3)CCN(C(=O)CN3CC(F)C3)C4)nc2c(N2C3CCC2CC3)n1 [Compound 235] | < 0.01 µM | ≥ 0.1 µM |
| CC(O)c1cc2cnc(Nc3ccc4c(n3)CCN(C(=O)CN3CC5(COC5)C3)C4)nc2c(N2C3CCC2CC3)n1 (stereo not drawn) [Compound 236] | < 0.01 µM | ≥ 0.1 µM |
| C[C@@H](O)c1cc2cnc(Nc3ccc4c(n3)CCN(C(=O)[C@@H]3CCCCN3C)C4)nc2c(N2C3CCC2CC3)n1 [Compound 237] | < 0.01 µM | ≥ 0.1 µM |
| CC(O)c1cc2cnc(Nc3ccc4c(n3)CCN(C(=O)C3CCCCN3C)C4)nc2c(N2C3CCC2CC3)n1 (stereo not drawn) [Compound 238] | < 0.01 µM | ≥ 0.1 µM |
| C[C@@H](O)c1cc2cnc(Nc3ccc4c(n3)CCN(C(=O)C3CN(C)C3)C4)nc2c(N2C3CCC2CC3)n1 [Compound 239] | < 0.01 µM | ≥ 0.1 µM |
| C[C@@H](O)c1cc2cnc(Nc3ccc4c(n3)CCN(C3CN(C)C3)C4)nc2c(N2C3CCC2CC3)n1 [Compound 240] | < 0.01 µM | ≥ 0.1 µM |
| CC(O)c1cc2cnc(Nc3ccc(OC4CCCNC4)cn3)nc2c(N2C3CCC2CC3)n1 (stereo not drawn) [Compound 242] | < 0.01 µM | ≥ 0.1 µM |
| C[C@@H](O)c1cc2cnc(Nc3ccc(O[C@H]4CCCN(CCO)C4)cn3)nc2c(N2C3CCC2CC3)n1 [Compound 253] | < 0.01 µM | ≥ 0.1 µM |
| C[C@@H](O)c1cc2cnc(Nc3ccc(N4CCNCC4=O)cn3)nc2c(N2C3CCC2CC3)n1 [Compound 256] | < 0.01 µM | ≥ 0.1 µM |
